The values below come from paper PMC6232652 (Computational and Structural Biotechnology Journal, 2018).

For one series, the system named is HepG2 cells. Description: MTT cytotoxicity assay, HepG2. To be noted: Homo sapiens, HepG2, 72 h, read-out: IC50 HepG2, MTT, 72 h, mean ± SD. In kind it is cell-based. (In general: Tetrazolium dyes change colour on reduction, which living cells bring about.)
A further series relates to MCF-7 cells. The series can be described thus: MTT cytotoxicity assay, MCF-7. In kind it is cell-based. As to conditions: Homo sapiens, MCF7, 72 h, read-out: IC50 MCF-7, MTT, 72 h, mean ± SD.
In series [1] the test system is A549 cells. Description: MTT cytotoxicity assay, A549. Type of series: cell-based. To be noted: Homo sapiens, A549, 72 h, read-out: IC50 A549, MTT, 72 h, mean ± SD.
Series [2] has as its system A549 cells. Description: Cell cycle analysis by flow cytometry. To be noted: 12 h, 4.20 μM 14d, 5.38 μM 19b; for Freq Sub-G1: control 0.07; for Freq G2 (percentage of cells in G2/M phase): control 18.21; for Freq S: control 32.62; for Freq G1: control 48.59.
The subject of series [3] is A549 cells. Description: Acridine orange. Type of series: cell-based. To be noted: 12 h, 4.20 μM 14d, 5.38 μM 19b.
The conditions of series [4]: previous investigation; cited from earlier work.
In another series the test system is EGFR. To be noted: read-out: IC50 (EGFR); previous investigation; cited from earlier work.

As for `Cc1ccc(/C=N/NC(=O)Nc2cc3c(Nc4ccc(F)c(Cl)c4)ncnc3cc2O[C@H]2CCOC2)o1` [10b, (S,E)-N-(4-((3-Chloro-4-fluorophenyl)amino)-7-((tetrahydrofuran-3-Yl)Oxy)quinazolin-6-Yl)-2-((5-methylfuran-2-Yl)methylene)hydrazine carboxamide], the IC50 (usually the point on the concentration scale where inhibition reaches its midpoint) is 33.2 ± 1.46 µM in the series with HepG2 cells, 34.8 ± 1.01 µM in the series with MCF-7 cells and 28.2 ± 1.34 µM in the series with A549 cells [1].
For `CCc1ccc(/C=N/NC(=O)Nc2cc3c(Nc4ccc(F)c(Cl)c4)ncnc3cc2O[C@H]2CCOC2)s1` [10d, (S,E)-N-(4-((3-chloro-4-fluorophenyl)amino)-7-((tetrahydrofuran-3-Yl)oxy)quinazolin-6-Yl)-2-((5-ethylthiophen-2-Yl)methylene)hydrazine carboxamide], the figures for the IC50 with HepG2 cells and with A549 cells [1] were 36.2 ± 1.78 µM and 34.23 ± 0.31 µM, respectively.
In the case of `CN(C)C/C=C/C(=O)Nc1cc2c(Nc3ccc(F)c(Cl)c3)ncnc2cc1O[C@H]1CCOC1` [Afatinib, reference compound], in the series on A549 cells [2], the “Freq Sub-G1” value amounted to 0.03%, the “Freq G2 (percentage of cells in G2/M phase)” value is 47.45%, the “Freq S” value is recorded as 12.92% and the “Freq G1” value is 39.41%.
Take `CN(C)CCn1cccc1/C=N/NC(=O)Nc1cc2c(Nc3ccc(F)c(Cl)c3)ncnc2cc1O[C@H]1CCOC1` [19b, (S,E)-N-(4-((3-chloro-4-fluorophenyl)amino)-7-((tetrahydrofuran-3-yl)oxy)quinazolin-6-yl)-2-((1-(2-(dimethylamino)ethyl)-1H-pyrrol-2-yl)methylene)hydrazine carboxamide]: in the series on A549 cells [3], the “Morphologic changes of A549 cells (AO staining), apoptosis” value is on record as “can induce A549 cell apoptosis”. In the series with A549 cells [2], the “Freq Sub-G1” value is listed as 0.05%, the “Freq G2 (percentage of cells in G2/M phase)” value worked out at 22.31%, the “Freq S” value stood at 43.84% and the “Freq G1” value is listed as 33.23%.
With `COc1cc2ncnc(Nc3ccc(F)c(Cl)c3)c2cc1NC(=O)N/N=C/c1ccc(C)s1` [11c, (E)-N-(4-((3-chloro-4-fluorophenyl)amino)-7-methoxyquinazolin-6-yl)-2-((5-methylthiophen-2-yl)methylene)hydrazine carboxamide], the IC50 in the series with HepG2 cells turned out to be 27.4 ± 1.03 µM; with MCF-7 cells, 28.1 ± 1.13 µM; in the series on A549 cells [1] it was 29.3 ± 0.36 µM.
For `CCc1ccc(/C=N/NC(=O)Nc2cc3c(Nc4ccc(F)c(Cl)c4)ncnc3cc2OC)s1` [11d, (E)-N-(4-((3-chloro-4-fluorophenyl)amino)-7-methoxyquinazolin-6-yl)-2-((5-ethylthiophen-2-yl)methylene)hydrazine carboxamide], the figures for the IC50 with HepG2 cells and in the series on A549 cells [1] were 35.2 ± 1.08 µM and 35.3 ± 0.42 µM, respectively.
As to `O=C(N/N=C/c1ccc[nH]1)Nc1cc2c(Nc3ccc(F)c(Cl)c3)ncnc2cc1O[C@H]1CCOC1` [10e, (S,E)-2-((1H-pyrrol-2-Yl)methylene)-N-(4-((3-chloro-4-fluorophenyl)amino)-7-((tetrahydrofuran-3-Yl)oxy)quinazolin-6-Yl)hydrazine carboxamide], the IC50 with HepG2 cells worked out at 0.59 ± 0.02 µM; in the series on MCF-7 cells, 1.21 ± 0.19 µM; in the series on A549 cells [1], 2.41 ± 0.32 µM.
On to `COc1cc2ncnc(Nc3ccc(F)c(Cl)c3)c2cc1NC(=O)N/N=C/c1ccco1` [11a, (E)-N-(4-((3-chloro-4-fluorophenyl)amino)-7-methoxyquinazolin-6-yl)-2-(furan-2-ylmethylene)hydrazine carboxamide], for which the IC50 came to 29.7 ± 1.86 µM in the series with HepG2 cells and 26.2 ± 1.23 µM in the series on A549 cells [1].
On to `O=C(N/N=C/c1ccco1)Nc1cc2c(Nc3ccc(F)c(Cl)c3)ncnc2cc1O[C@H]1CCOC1` [10a, (S,E)-N-(4-((3-chloro-4-fluorophenyl)amino)-7-((tetrahydrofuran-3-yl)oxy)quinazolin-6-yl)-2-(furan-2-ylmethylene)hydrazine carboxamide], for which the IC50 in the series on HepG2 cells was determined as 35.2 ± 1.53 µM; with MCF-7 cells it was 33.4 ± 0.97 µM.
As for `Cc1ccc(/C=N/NC(=O)Nc2cc3c(Nc4ccc(F)c(Cl)c4)ncnc3cc2O[C@H]2CCOC2)s1` [10c, (S,E)-N-(4-((3-chloro-4-fluorophenyl)amino)-7-((tetrahydrofuran-3-yl)oxy)quinazolin-6-yl)-2-((5-methylthiophen-2-yl)methylene)hydrazine carboxamide], the IC50 in the series with HepG2 cells worked out at 29.2 ± 1.43 µM; in the series on MCF-7 cells, 26.1 ± 1.33 µM; in the series on A549 cells [1] it was 28.4 ± 0.56 µM.
In the case of `COc1cc2ncnc(Nc3ccc(F)c(Cl)c3)c2cc1NC(=O)N/N=C/c1ccc(C)o1` [11b, (E)-N-(4-((3-chloro-4-fluorophenyl)amino)-7-methoxyquinazolin-6-yl)-2-((5-methylfuran-2-yl)methylene)hydrazine carboxamide], the results for the IC50 with HepG2 cells, in the series on MCF-7 cells and in the series on A549 cells [1] were 30.2 ± 1.16 µM, 35.2 ± 81 µM and 28.2 ± 1.34 µM, respectively.
For the compound `O=C(N/N=C/CN1CCCCC1)Nc1cc2c(Nc3ccc(F)c(Cl)c3)ncnc2cc1O[C@H]1CCOC1` [14d, (S,E)-N-(4-((3-chloro-4-fluorophenyl)amino)-7-((tetrahydrofuran-3-yl)oxy)quinazolin-6-yl)-2-(2-(piperidin-1-yl)ethylidene)hydrazine carboxamide], in the series with A549 cells [3], the “Morphologic changes of A549 cells (AO staining), apoptosis” value is “can induce A549 cell apoptosis”. In addition, in the series with A549 cells [2], the “Freq Sub-G1” value was 0.06%, the “Freq G2 (percentage of cells in G2/M phase)” value is 23.62%, the “Freq S” value amounted to 48.44% and the “Freq G1” value is 27.08%.
In the case of `O=C(N/N=C/c1ccc(O)cc1)Nc1cc2c(Nc3ccc(F)c(Cl)c3)ncnc2cc1O[C@H]1CCOC1` [BMC201725-9o, (S,E)-N-(4-((3-chloro-4-fluorophenyl)amino)-7-((tetrahydrofuran-3-yl)oxy)quinazolin-6-yl)-2-(4-hydroxybenzylidene)hydrazine carboxamide], the solubility entry in series [4] was “unsatisfactory solubility”. Further, in the series on EGFR, the IC50 is 0.056 µM.
